Measurements published in US9918990B2, “Substituted pyrrolo[2,3-c]pyridines and pyrazolo[3,4-c]pyridines as BET protein inhibitors” (Incyte Corporation, priority 2013, dated 2018).
Counter-ions that a name gives are not always drawn.

Assays:
BRD4-BD1 = BRD4-BD1 (Homo sapiens (Human), UniProt O60885); assay: BRD4 AlphaScreen assay, BRD4-BD1; format: binding; settings: H4Ac4 peptide, 75 min, room temperature, read-out: BRD4 BD-1 enzyme IC50
Protocol: (§1) BRD4-BD1 and BRD4-BD2 assays were conducted in white 384-well polystyrene plate in a final volume of 20 μL for BD1 and 40 μL for BD2. Inhibitors were first serially diluted in DMSO and added to the plate wells before the addition of other reaction components. […] After plate sealing, the plate was incubated in the dark at room temperature for 75 min. before reading on a PHERAstar FS plate reader (BMG Labtech). IC50 determination was performed by fitting the curve of percent control activity versus the log of the inhibitor concentration using the GraphPad Prism 5.0 software.

BRD4-BD2 = BRD4-BD2 (Homo sapiens (Human), UniProt O60885); assay: BRD4 AlphaScreen assay, BRD4-BD2; format: binding; settings: H4Ac4 peptide, 75 min, room temperature, read-out: BRD4 BD-2 enzyme IC50
Protocol: as §1

KMS.12.BM cells = assay: KMS.12.BM cell viability assay (Cell Titer-GLO, ATP quantitation); format: cell-based; settings: Homo sapiens, 72 h, 3 days, concentration required for 50% cell death, read-out: KMS cellular IC50
Protocol: KMS.12.BM cell line (human myeloma) was purchased from JCRB (Osaka, Japan) and maintained in RPMI with 10% FBS culture medium. To measure the cytotoxic activity of the compounds through ATP quantitation, the KMS.12.BM cells are plated in the RPMI culture medium at 5000 cells/well/per 100 μL into a 96-well polystyrene clear black tissue culture plate (Greiner-bio-one through VWR, NJ), in the presence or absence of a concentration range of test compounds. After 3 days, […] Cell Titer-GLO Luminescent (Promega, Madison, Wis.) cell culture agent is added to each well for 10 minutes at room temperature to stabilize the luminescent signal. This determines the number of viable cells in culture based on quantitation of the ATP present, which signals the presence of metabolically active cells. Luminescence is measured with the Top Count 384 (Packard Bioscience through Perkin Elmer, Boston, Mass.). Compound inhibition is determined relative to cells cultured with no drug and the IC50 is reported as the compound concentration required for 50% cell death. IC50 data for the Examples is presented in Table 9 as determined by Assay B1.

IC50 (BRD4-BD1) [µM]	IC50 (BRD4-BD2) [µM]	SMILES	IC50 (KMS.12.BM cells) [µM]
< 0.1	< 0.1	CN(C)C(=O)Cn1cnc2ccc(-c3cn(C)c(=O)c4[nH]ccc34)c(Oc3ccc(F)cc3F)c21 [Example 33, 2-[7-(2,4-Difluorophenoxy)-6-(6-methyl-7-oxo-6,7-dihydro-1H-pyrrolo[2,3-c]pyridin-4-yl)-1H-benzimidazol-1-yl]-N,N-dimethylacetamide]	≤ 1
< 0.1	< 0.1	CNC(=O)Cn1cnc2ccc(-c3cn(C)c(=O)c4[nH]ccc34)c(Oc3ccc(F)cc3F)c21 [Example 35, 2-[7-(2,4-Difluorophenoxy)-6-(6-methyl-7-oxo-6,7-dihydro-1H-pyrrolo[2,3-c]pyridin-4-yl)-1H-benzimidazol-1-yl]-N-methylacetamide]	≤ 1
< 0.1	< 0.1	Cn1cc(-c2cc(CNCc3ccccc3)c3[nH]c(=O)[nH]c3c2Oc2ccc(F)cc2F)c2cc[nH]c2c1=O [Example 80, 7-[(Benzylamino)methyl]-4-(2,4-difluorophenoxy)-5-(6-methyl-7-oxo-6,7-dihydro-1H-pyrrolo[2,3-c]pyridin-4-yl)-1,3-dihydro-2H-benzimidazol-2-one]	≤ 1
0.1 to 1	< 0.1	Cn1cc(-c2cc(CNCC3CC3)c3[nH]c(=O)[nH]c3c2Oc2ccc(F)cc2F)c2cc[nH]c2c1=O [Example 81, 7-{[(Cyclopropylmethyl)amino]methyl}-4-(2,4-difluorophenoxy)-5-(6-methyl-7-oxo-6,7-dihydro-1H-pyrrolo[2,3-c]pyridin-4-yl)-1,3-dihydro-2H-benzimidazol-2-one]	≤ 1
0.1 to 1	0.1 to 1	Cn1cnc2c(Oc3ccc(F)cc3F)c(-c3c[nH]c(=O)c4[nH]ccc34)ccc21 [Example 82, 4-[4-(2,4-Difluorophenoxy)-1-methyl-1H-benzimidazol-5-yl]-1,6-dihydro-7H-pyrrolo[2,3-c]pyridin-7-one]	–
0.1 to 1	< 0.1	CCn1cc(-c2ccc3c(ncn3C)c2Oc2ccc(F)cc2F)c2cc[nH]c2c1=O [Example 83, 4-[4-(2,4-Difluorophenoxy)-1-methyl-1H-benzimidazol-5-yl]-6-ethyl-1,6-dihydro-7H-pyrrolo[2,3-c]pyridin-7-one]	≤ 1
1 to 10	0.1 to 1	Cn1cnc2c(Oc3ccc(F)cc3F)c(-c3cn(Cc4ccccc4)c(=O)c4[nH]ccc34)ccc21 [Example 84, 6-Benzyl-4-[4-(2,4-difluorophenoxy)-1-methyl-1H-benzimidazol-5-yl]-1,6-dihydro-7H-pyrrolo[2,3-c]pyridin-7-one trifluoroacetate]	–
1 to 10	0.1 to 1	Cn1cnc2c(Oc3ccc(F)cc3F)c(-c3cn(CC#N)c(=O)c4[nH]ccc34)ccc21 [Example 85, {4-[4-(2,4-Difluorophenoxy)-1-methyl-1H-benzimidazol-5-yl]-7-oxo-1,7-dihydro-6H-pyrrolo[2,3-c]pyridin-6-yl}acetonitrile trifluoroacetate]	–

The next lines start with the compound.

SMILES	IC50 (BRD4-BD1) [µM]	IC50 (BRD4-BD2) [µM]	IC50 (KMS.12.BM cells) [µM]
Cn1cc(-c2ccc3[nH]c(=O)[nH]c3c2OC2CCC(F)(F)CC2)c2cc[nH]c2c1=O [Example 23, 4-[(4,4-Difluorocyclohexyl)oxy]-5-(6-methyl-7-oxo-6,7-dihydro-1H-pyrrolo[2,3-c]pyridin-4-yl)-1,3-dihydro-2H-benzimidazol-2-one]	< 0.1	< 0.1	≤ 1
COc1c(-c2cn(C)c(=O)c3[nH]ccc23)ccc2c1n(Cc1ccccc1)c(=O)n2C [Example 44, 3-Benzyl-4-methoxy-1-methyl-5-(6-methyl-7-oxo-6,7-dihydro-1H-pyrrolo[2,3-c]pyridin-4-yl)-1,3-dihydro-2H-benzimidazol-2-one]	< 0.1	< 0.1	≤ 1
COc1c(-c2cn(C)c(=O)c3[nH]ccc23)ccc2c1n(CCc1ccccc1)c(=O)n2C [Example 49, 4-Methoxy-1-methyl-5-(6-methyl-7-oxo-6,7-dihydro-1H-pyrrolo[2,3-c]pyridin-4-yl)-3-(2-phenylethyl)-1,3-dihydro-2H-benzimidazol-2-one]	0.1 to 1	< 0.1	≤ 1
COc1c(-c2cn(C)c(=O)c3[nH]ccc23)ccc2c1n(CCN1CCOCC1)c(=O)n2C [Example 50, 4-Methoxy-1-methyl-5-(6-methyl-7-oxo-6,7-dihydro-1H-pyrrolo[2,3-c]pyridin-4-yl)-3-(2-morpholin-4-ylethyl)-1,3-dihydro-2H-benzimidazol-2-one]	0.1 to 1	< 0.1	–
Cn1cc(-c2ccc3c(c2OCC2CCC2)n(CCc2ccccc2)c(=O)n3C)c2cc[nH]c2c1=O [Example 63, 4-(Cyclobutylmethoxy)-1-methyl-5-(6-methyl-7-oxo-6,7-dihydro-1H-pyrrolo[2,3-c]pyridin-4-yl)-3-(2-phenylethyl)-1,3-dihydro-2H-benzimidazol-2-one]	< 0.1	< 0.1	≤ 1
Cn1cc(-c2ccc3c(c2OCC2CCC2)n(CCC2CCNCC2)c(=O)n3C)c2cc[nH]c2c1=O [Example 65, 4-(Cyclobutylmethoxy)-1-methyl-5-(6-methyl-7-oxo-6,7-dihydro-1H-pyrrolo[2,3-c]pyridin-4-yl)-3-(2-piperidin-4-ylethyl)-1,3-dihydro-2H-benzimidazol-2-one]	< 0.1	< 0.1	1 to 10
Cn1cc(-c2ccc3c(c2OCC2CCC2)n(CCN2CCN(S(C)(=O)=O)CC2)c(=O)n3C)c2cc[nH]c2c1=O [Example 67, 4-(Cyclobutylmethoxy)-1-methyl-5-(6-methyl-7-oxo-6,7-dihydro-1H-pyrrolo[2,3-c]pyridin-4-yl)-3-{2-[4-(methylsulfonyl)piperazin-1-yl]ethyl}-1,3-dihydro-2H-benzimidazol-2-one]	< 0.1	< 0.1	≤ 1
C[C@@H]1CN(CCn2c(NCc3ccccc3)nc3c(Oc4ccccc4)c(-c4cn(C)c(=O)c5[nH]ccc45)ccc32)C[C@H](C)O1 [Example 71, 4-(2-(Benzylamino)-1-{2-[(2R,6S)-2,6-dimethylmorpholin-4-yl]ethyl}-4-phenoxy-1H-benzimidazol-5-yl)-6-methyl-1,6-dihydro-7H-pyrrolo[2,3-c]pyridin-7-one trifluoroacetate]	1 to 10	1 to 10	–
C[C@@H]1CN(CCn2c(NCC3CC3)nc3c(Oc4ccccc4)c(-c4cn(C)c(=O)c5[nH]ccc45)ccc32)C[C@H](C)O1 [Example 72, 4-(2-[(Cyclopropylmethyl)amino]-1-{2-[(2R,6S)-2,6-dimethylmorpholin-4-yl]ethyl}-4-phenoxy-1H-benzimidazol-5-yl)-6-methyl-1,6-dihydro-7H-pyrrolo[2,3-c]pyridin-7-one trifluoroacetate]	0.1 to 1	< 0.1	1 to 10
CCOc1c(-c2cn(C)c(=O)c3[nH]ccc23)c(C)nc2cc(C)nn12 [Example 73, 4-(7-Ethoxy-2,5-dimethylpyrazolo[1,5-a]pyrimidin-6-yl)-6-methyl-1,6-dihydro-7H-pyrrolo[2,3-c]pyridin-7-one]	1 to 10	0.1 to 1	–
Cn1cc(-c2cc(CNCCN3CCOCC3)c3[nH]c(=O)[nH]c3c2Oc2ccc(F)cc2F)c2cc[nH]c2c1=O [Example 79, 4-(2,4-Difluorophenoxy)-5-(6-methyl-7-oxo-6,7-dihydro-1H-pyrrolo[2,3-c]pyridin-4-yl)-7-{[(2-morpholin-4-ylethyl)amino]methyl}-1,3-dihydro-2H-benzimidazol-2-one]	0.1 to 1	< 0.1	1 to 10
CCS(=O)(=O)c1c(-c2cn(C)c(=O)c3[nH]ccc23)ccc2c1[nH]c(=O)n2C [Example 99, 4-(Ethylsulfonyl)-1-methyl-5-(6-methyl-7-oxo-6,7-dihydro-1H-pyrrolo[2,3-c]pyridin-4-yl)-1,3-dihydro-2H-benzimidazol-2-one]	1 to 10	0.1 to 1	–
Cn1cc(-c2ccc3c(c2Oc2ccccc2)N(Cc2ccccc2)C(=O)CO3)c2cc[nH]c2c1=O [Example 101, 4-Benzyl-6-(6-methyl-7-oxo-6,7-dihydro-1H-pyrrolo[2,3-c]pyridin-4-yl)-5-phenoxy-2H-1,4-benzoxazin-3(4H)-one]	0.1 to 1	0.1 to 1	–
Cn1cc(-c2ccc3c(c2Oc2ccccc2)N(CCN2CCOCC2)C(=O)CO3)c2cc[nH]c2c1=O [Example 102, 6-(6-Methyl-7-oxo-6,7-dihydro-1H-pyrrolo[2,3-c]pyridin-4-yl)-4-(2-morpholin-4-ylethyl)-5-phenoxy-2H-1,4-benzoxazin-3(4H)-one trifluoroacetate]	0.1 to 1	< 0.1	–
Cn1cc(-c2ccc3c(c2Oc2ccccc2)NC(c2ccccc2)CO3)c2cc[nH]c2c1=O (centres unmarked) [Example 110, 6-Methyl-4-(5-phenoxy-3-phenyl-3,4-dihydro-2H-1,4-benzoxazin-6-yl)-1,6-dihydro-7H-pyrrolo[2,3-c]pyridin-7-one]	0.1 to 1	< 0.1	–
